The term IC50 denotes the concentration that inhibits the measured activity by half.

IC50 data for 19 compounds are collected here from patent US10239832B2, “N-(1-hydroxy-3-(pyrrolidinyl)propan-2-yl)pyrrolidine-3-carboxamide derivatives as glucosylceramide synthase inhibitors” (BIOMARIN PHARMACEUTICAL INC., priority 2013, dated 2019).

This assay deals with T1, GCS (Canis lupus familiaris, UniProt A0A8I3MXG6).
T1 construct: endogenous in cells; host or cells: MDCK (Madin-Darby canine kidney) cells, whole-cell lysate
T1 sequence (A0A8I3MXG6 1-394): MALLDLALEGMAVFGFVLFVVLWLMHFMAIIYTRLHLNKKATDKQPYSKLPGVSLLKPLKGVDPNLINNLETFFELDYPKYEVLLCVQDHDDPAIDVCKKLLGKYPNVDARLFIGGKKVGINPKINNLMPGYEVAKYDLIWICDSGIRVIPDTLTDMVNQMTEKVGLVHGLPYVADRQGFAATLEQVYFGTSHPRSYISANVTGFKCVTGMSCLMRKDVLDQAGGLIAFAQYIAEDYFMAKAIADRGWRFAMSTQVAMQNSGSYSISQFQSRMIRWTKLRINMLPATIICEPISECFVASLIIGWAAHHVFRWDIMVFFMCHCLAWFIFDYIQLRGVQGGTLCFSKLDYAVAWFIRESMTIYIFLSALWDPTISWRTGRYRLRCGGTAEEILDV
Kind of assay: GCS enzymatic assay (MDCK cell lysate, NBD-ceramide to glucosylceramide, LC/MS). The class given is biochemical, canine. Particulars: Table 2; class symbols A, B, C; the table does not say which of the assays; read-out: Data Range (IC50 values). The method, boiled down: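 IC50 or percent inhibition came from LC/MS/MS (ESI+, MRM) of NBD-ceramide and glucosylceramide, with tolbutamide as internal standard. The reaction used MDCK (canine) cell lysate as the enzyme source and was ended with acetonitrile. Mock wells received 0.1% DMSO.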

With `O=C(N[C@H](CN1CCCC1)[C@H](O)c1ccc(OC2CCCC2)c(Cl)c1)[C@@H]1CCN(c2ccc(Cl)cc2)C1` [Compound 141, (R)-N-((1R,2R)-1-(3-chloro-4-(cyclopentyloxy)phenyl)-1-hydroxy-3-(pyrrolidin-1-yl)propan-2-yl)-1-(4-chlorophenyl)pyrrolidine-3-carboxamide], the half-maximal inhibitory concentration (IC50) lay in the range of 30 to 100 nM.

Turning to `CC(C)(C)c1ccc(N2CC[C@@H](C(=O)N[C@H](CN3CCCC3)[C@H](O)c3cc(F)c4c(c3)OCCO4)C2)cc1` [Compound 142, (R)-1-(4-(tert-butyl)phenyl)-N-((1R,2R)-1-(8-fluoro-2,3-dihydrobenzo[b][1,4]dioxin-6-yl)-1-hydroxy-3-(pyrrolidin-1-yl)propan-2-yl)pyrrolidine-3-carboxamide], the half-maximal inhibitory concentration (IC50) is 30 to 100 nM.

As to `O=C(N[C@H](CN1CCCC1)[C@H](O)c1ccc2c(c1)OC=CO2)[C@@H]1CCN(c2ccc(Cl)cc2)C1` [Compound 143, (R)-N-((1R,2R)-1-(benzo[b][1,4]dioxin-6-yl)-1-hydroxy-3-(pyrrolidin-1-yl)propan-2-yl)-1-(4-chlorophenyl)pyrrolidine-3-carboxamide], the IC50 lay in the range of 1 to 30 nM.

Take `O=C(N[C@H](CN1CCCC1)[C@H](O)c1cc(F)c2c(c1)OCCO2)[C@@H]1CCN(c2ccc(Cl)c(-c3ccc(F)cc3)n2)C1` [Compound 144, (R)-1-(5-chloro-6-(4-fluorophenyl)pyridin-2-yl)-N((1R,2R)-1-(8-fluoro-2,3-dihydrobenzo[b][1,4]dioxin-6-yl)-1-hydroxy-3-(pyrrolidin-1-yl)propan-2-yl)pyrrolidine-3-carboxamide]: the IC50 was 1 to 30 nM.

For `O=C(N[C@H](CN1CCCC1)[C@H](O)c1ccc(SC2CC2)c(Cl)c1)[C@@H]1CCN(c2ccc(Cl)cc2)C1` [Compound 145, (R)-N-((1R,2R)-1-(3-chloro-4-(cyclopropylthio)phenyl)-1-hydroxy-3-(pyrrolidin-1-yl)propan-2-yl)-1-(4-chlorophenyl)pyrrolidine-3-carboxamide], the IC50 was 1 to 30 nM.

As to `O=C(N[C@H](CN1CCCC1)[C@H](O)c1ccc(OC2CC2)c(Cl)c1)[C@@H]1CCN(c2ccc(Cl)c(-c3ccc(F)cc3)n2)C1` [Compound 146, (R)-N-((1R,2R)-1-(3-chloro-4-cyclopropoxyphenyl)-1-hydroxy-3-(pyrrolidin-1-yl)propan-2-yl)-1-(5-chloro-6-(4-fluorophenyl)pyridin-2-yl)pyrrolidine-3-carboxamide], the half-maximal inhibitory concentration (IC50) was 1 to 30 nM.

`C=COc1ccc([C@@H](O)[C@@H](CN2CCCC2)NC(=O)[C@@H]2CCN(c3ccc(Cl)cc3)C2)cc1Cl` [Compound 147, (R)-N-((1R,2R)-1-(3-chloro-4-(vinyloxy)phenyl)-1-hydroxy-3-(pyrrolidin-1-yl)propan-2-yl)-1-(4-chlorophenyl)pyrrolidine-3-carboxamide]: the IC50 lay within 1 to 30 nM.

Take `O=C(N[C@H](CN1CCCC1)[C@H](O)c1ccc(OC2CC2)cc1)[C@@H]1CCN(c2ccc(F)cc2)C1` [Compound 148, (R)-N-((1R,2R)-1-(4-cyclopropoxyphenyl)-1-hydroxy-3-(pyrrolidin-1-yl)propan-2-yl)-1-(4-fluorophenyl)pyrrolidine-3-carboxamide]: the half-maximal inhibitory concentration (IC50) is 1 to 30 nM.

In the case of `O=C(N[C@H](CN1CCCC1)[C@H](O)c1ccc(OC2CC2)cc1)[C@@H]1CCN(c2ccccc2)C1` [Compound 149, (R)-N-((1R,2R)-1-(4-cyclopropoxyphenyl)-1-hydroxy-3-(pyrrolidin-1-yl)propan-2-yl)-1-phenylpyrrolidine-3-carboxamide], the IC50 lay within 1 to 30 nM.

As for `O=C(N[C@H](CN1CCCC1)[C@H](O)c1ccc(OC2CC2)c(Cl)c1)[C@@H]1CCN(c2ccccc2)C1` [Compound 150, (R)-N-((1R,2R)-1-(3-chloro-4-cyclopropoxyphenyl)-1-hydroxy-3-(pyrrolidin-1-yl)propan-2-yl)-1-phenylpyrrolidine-3-carboxamide], the IC50 lay in the range of 1 to 30 nM.

For `O=C(N[C@H](CN1CCCC1)[C@H](O)c1ccc(OC2CC2)c(F)c1)[C@@H]1CCN(c2ccccc2)C1` [Compound 151, (R)-N-((1R,2R)-1-(4-cyclopropoxy-3-fluorophenyl)-1-hydroxy-3-(pyrrolidin-1-yl)propan-2-yl)-1-phenylpyrrolidine-3-carboxamide], the IC50 was 1 to 30 nM.

Take `N#Cc1ccc(N2CC[C@@H](C(=O)N[C@H](CN3CCCC3)[C@H](O)c3ccc(OC4CC4)c(Cl)c3)C2)cc1` [Compound 152, (R)-N-((1R,2R)-1-(3-chloro-4-cyclopropoxyphenyl)-1-hydroxy-3-(pyrrolidin-1-yl)propan-2-yl)-1-(4-cyanophenyl)pyrrolidine-3-carboxamide]: the IC50 was 100 to 1000 nM.

Take `Cc1ccc(N2CC[C@@H](C(=O)N[C@H](CN3CCCC3)[C@H](O)c3ccc(OC4CC4)c(Cl)c3)C2)cc1` [Compound 153, (R)-N-((1R,2R)-1-(3-chloro-4-cyclopropoxyphenyl)-1-hydroxy-3-(pyrrolidin-1-yl)propan-2-yl)-1-(p-tolyl)pyrrolidine-3-carboxamide]: the IC50 is 1 to 30 nM.

As for `O=C(N[C@H](CN1CCCC1)[C@H](O)c1cc(F)c2c(c1)OCCO2)[C@]1(O)CCN(c2ccc(Cl)cc2)C1` [Compound 154, (S)-1-(4-chlorophenyl)-N-((1R,2R)-1-(8-fluoro-2,3-dihydrobenzo[b][1,4]dioxin-6-yl)-1-hydroxy-3-(pyrrolidin-1-yl)propan-2-yl)-3-hydroxypyrrolidine-3-carboxamide], the IC50 is 1 to 30 nM.

With `O=C(N[C@H](CN1CCCC1)[C@H](O)c1cc(F)c2c(c1)OCCO2)[C@@]1(O)CCN(c2ccc(Cl)cc2)C1` [Compound 154C, (R)-1-(4-chlorophenyl)-N-((1R,2R)-1-(8-fluoro-2,3-dihydrobenzo[b][1,4]dioxin-6-yl)-1-hydroxy-3-(pyrrolidin-1-yl)propan-2-yl)-3-hydroxypyrrolidine-3-carboxamide], the IC50 lay in the range of 100 to 1000 nM.

On to `O=C(N[C@H](CN1CCCC1)[C@H](O)c1ccc(OC2CC2)cc1)[C@@H]1CCN(c2ccc(Cl)cc2)C1` [Compound 155, (R)-1-(4-chlorophenyl)-N-((1R,2R)-1-(4-cyclopropoxyphenyl)-1-hydroxy-3-(pyrrolidin-1-yl)propan-2-yl)pyrrolidine-3-carboxamide], for which the IC50 lay within 1 to 30 nM.

As for `O=C(N[C@H](CN1CCCC1)[C@H](O)c1ccc(Cl)cc1)[C@@H]1CCN(c2ccc(Cl)cc2)C1` [Compound 156, (R)-1-(4-chlorophenyl)-N((1R,2R)-1-(4-chlorophenyl)-1-hydroxy-3-(pyrrolidin-1-yl)propan-2-yl)pyrrolidine-3-carboxamide], the IC50 was in the range of 100 to 1000 nM.

As for `O=C(N[C@H](CN1CCCC1)[C@H](O)c1ccc(OC2CC2)cc1)[C@@H]1CCN(c2ccc3ccsc3c2)C1` [Compound 157, (R)-1-(benzo[b]thiophen-6-yl)-N-((1R,2R)-1-(4-cyclopropoxyphenyl)-1-hydroxy-3-(pyrrolidin-1-yl)propan-2-yl)pyrrolidine-3-carboxamide], the IC50 was 1 to 30 nM.

Take `O=C(N[C@H](CN1CCC1)[C@H](O)c1ccc(OC2CC2)cc1)[C@@H]1CCN(c2ccc3ccsc3c2)C1` [Compound 158, (R)-N-((1R,2R)-3-(azetidin-1-yl)-1-(4-cyclopropoxyphenyl)-1-hydroxypropan-2-yl)-1-(benzo[b]thiophen-6-yl)pyrrolidine-3-carboxamide]: the IC50 lay in the range of 30 to 100 nM.
